Assay results taken from US8889878B2, “Haloalky-substituted amides as insecticides and acaricides” (Bayer CropScience AG, priority 2009, dated 2014).

Assays:
[1] = logP by HPLC on reverse-phase column (EEC Directive 79/831 Annex V.A8); format: physicochemical; conditions: for chromatographic logP: reverse-phase C18 HPLC column
Protocol: The logP values reported in the above Tables and Preparation Examples were determined according to EEC Directive 79/831 Annex V.A8 by HPLC (High Performance Liquid Chromatography) on a reverse-phase column (C18). Temperature 43° C.

[2] = system: Ctenocephalides felis; experiment: Ctenocephalides felis oral (CTECFE), Example 2; format: in vivo; conditions: application rate 20 ppm in citrated cow's blood, after 2 days
Protocol: Ctenocephalides felis Oral ([…]) • Solvent: 1 part by weight of dimethyl sulphoxide For the purpose of preparing an active ingredient formulation, 10 mg of active ingredient are mixed with 0.5 ml of dimethyl sulphoxide. A portion of the concentrate was diluted with citrated cow's blood and the desired concentration was prepared. 20 unfed adult fleas (Ctenocephalides felis) are placed into a chamber sealed at the top and bottom with gauze. A metal cylinder with its lower end sealed with Parafilm is placed onto the chamber. The cylinder contains the blood-active ingredient preparation, which can be consumed by the fleas through the Parafilm membrane. After 2 days, the kill rate in % is determined. 100% means that all fleas were killed; 0% means that no fleas were killed.

[3] = system: mustard beetle (Phaedon cochleariae); experiment: Phaedon test (PHAECO spray treatment), Example 7; format: in vivo; conditions: application rate 20 g/ha, china cabbage leaf discs sprayed, after 7 days
Outline: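 Spray formulation (acetone/DMF with alkylaryl polyglycol ether, diluted in emulsifier-containing water) applied to Chinese cabbage leaf discs, which were dried and then stocked with mustard beetle larvae. Efficacy scored at 7 days as % larvae killed (100% all, 0% none).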

[4] = system: Lucilia cuprina larvae; experiment: Lucilia cuprina test (LUCICU), Example 3; format: in vivo; conditions: application rate 20 ppm, treated horsemeat, after 2 days
Protocol: Lucilia cuprina Test (LUCICU) • Solvent: dimethyl sulphoxide To prepare an active ingredient formulation, 10 mg of active ingredient are mixed with 0.5 ml of dimethyl sulphoxide, and the concentrate is diluted with water to the desired concentration. Vessels containing horsemeat which has been treated with the active ingredient formulation of the desired concentration are populated with Lucilia cuprina larvae. After 2 days, the kill rate in % is determined. 100% means that all larvae were killed; 0% means that no larvae were killed.

[5] = system: green peach aphid (Myzus persicae); experiment: Myzus test (MYZUPE spray treatment), Example 17; format: in vivo; conditions: china cabbage leaf discs sprayed, after 6 days
Outline: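 Efficacy recorded at 6 days as % kill, where 100% means every aphid dead and 0% none. Spray applied to Brassica pekinensis leaf discs bearing mixed-stage aphids; active ingredient dissolved in acetone with dimethylformamide and emulsifier, then diluted with emulsifier-containing water.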

[6] = system: Boophilus microplus; experiment: Boophilus microplus test (BOOPMI injection), Example 1; format: in vivo; conditions: application rate 20 μg/animal, injected into abdomen, after 7 days
Protocol: Boophilus microplus Test (BOOPMI Injection) • Solvent: dimethyl sulphoxide To prepare an active ingredient formulation, 10 mg of active ingredient are mixed with 0.5 ml of solvent and the concentrate is diluted with water to the desired concentration. The active ingredient solution was injected into the abdomen (Boophilus microplus), and the animals were transferred to dishes and stored in a climate-controlled room. The efficacy was assessed by the number of fertile eggs laid. After 7 days, the efficacy in % is determined. 100% means that no tick laid fertile eggs.

[7] = system: Boophilus microplus; experiment: Boophilus microplus test (BOOPMI injection), Example 11; format: in vivo; conditions: application rate 20 μg/animal, injected into abdomen, after 7 days; for pest or weed control at 0.02 mg: Rhipicephalus microplus, 168 h, read-out: efficacy in % (fertile eggs laid)
Outline: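 Efficacy rated from fertile egg laying: 100% means none of the ticks laid fertile eggs, read after 7 days. Compound, dissolved and diluted in DMSO, was delivered by abdominal injection, and ticks were kept in dishes under climate control.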

[8] = system: Musca domestica adults; experiment: Musca domestica test (MUSCDO), Example 14; format: in vivo; conditions: application rate 100 ppm, treated sponge, after 2 days
Protocol: Musca domestica Test (MUSCDO) • Solvent: dimethyl sulphoxide To prepare an appropriate active ingredient formulation, 10 mg of active ingredient are mixed with 0.5 ml of dimethyl sulphoxide, and the concentrate is diluted with water to the desired concentration. Vessels containing a sponge which has been treated with the active ingredient formulation of the desired concentration are populated with Musca domestica adults. After 2 days, the kill rate in % is determined. 100% means that all flies were killed; 0% means that no flies were killed.

[9] = system: red spider mite (Tetranychus urticae); experiment: Tetranychus test, OP-resistant (TETRUR spray treatment), Example 8; format: in vivo; conditions: application rate 20 g/ha, common bean leaf discs sprayed, after 6 days
Outline: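 Bean (Phaseolus vulgaris) leaf discs carrying all stages of OP-resistant Tetranychus urticae sprayed with compound in acetone/DMF with emulsifier, diluted in water to the test concentration. Mortality scored after 6 days as % efficacy (100% = all mites killed).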

[10] = system: red spider mite (Tetranychus urticae); experiment: Tetranychus test; OP-resistant (TETRUR spray treatment), Example 18; format: in vivo; conditions: Tetranychus urticae, foliar, 144 h, common bean leaf discs sprayed, after 6 days, read-out: efficacy in %; for pest or weed control at 100 g/ha: application rate 100 g/ha; for pest or weed control at 500 g/ha: application rate 500 g/ha
Protocol: Tetranychus Test; OP-Resistant (TETRUR Spray Treatment)
(§1) • Solvent: 78.0 parts by weight of acetone • 1.5 parts by weight of dimethylformamide • Emulsifier: 0.5 part by weight of alkylaryl polyglycol ether
To prepare an appropriate active ingredient formulation, 1 part by weight of active ingredient is mixed with the stated amounts of solvent and emulsifier, and the concentrate is diluted with emulsifier-containing water to the desired concentration. Leaf discs from the common bean (Phaseolus vulgaris) infested by all stages of the red spider mite (Tetranychus urticae) are sprayed with an active ingredient formulation of the desired concentration.
After 6 days, the efficacy in % is determined. 100% means that all spider mites were killed; 0% means that no spider mites were killed.

[11] = system: mustard beetle (Phaedon cochleariae); experiment: Phaedon test (PHAECO spray treatment), Example 16; format: in vivo; conditions: Phaedon cochleariae, foliar, china cabbage leaf discs sprayed, after the desired time, read-out: efficacy in %; for pest or weed control at 100 g/ha: application rate 100 g/ha; for pest or weed control at 500 g/ha: application rate 500 g/ha
Protocol: Phaedon Test (PHAECO Spray Treatment)
as §1
To prepare an appropriate active ingredient formulation, 1 part by weight of active ingredient is mixed with the stated amounts of solvent and emulsifier, and the concentrate is diluted with emulsifier-containing water to the desired concentration. […]
After the desired time, the efficacy in % is determined. 100% means that all beetle larvae were killed; 0% means that no beetle larvae were killed.

[12] = system: armyworm (Spodoptera frugiperda); experiment: Spodoptera frugiperda test (SPODFR spray treatment), Example 15; format: in vivo; conditions: Spodoptera frugiperda, foliar, 168 h, maize leaf discs sprayed, after 7 days, read-out: efficacy in %; for pest or weed control at 500 g/ha: application rate 500 g/ha; for pest or weed control at 100 g/ha: application rate 100 g/ha
Outline: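 Caterpillars placed on dried, sprayed Zea mays leaf discs; formulation of acetone, dimethylformamide and emulsifier diluted with emulsifier-containing water to test concentration. Percent kill scored on day 7.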

[13] = pH 2.7, HPLC, C18 reverse phase, 43° C., acidic range pH 2.7, calibration with alkan-2-ones

| SMILES | logP ([1]; HPLC-MS) | kill rate in % (efficacy) [2] [%] | efficacy in % [3] [%] | kill rate in % (efficacy) [4] [%] | efficacy in % (fertile eggs laid) [6] [%] | efficacy in % (fertile eggs laid) [7] [%] | chromatographic logP [1, 13] | pest or weed control at 100 g/ha [10] [%] | pest or weed control at 100 g/ha [11] [%] | also measured |
| --- | --- | --- | --- | --- | --- | --- | --- | --- | --- | --- |
| Cc1cc(/C=C/C(=O)NC(c2cccc(C(F)(F)F)c2)C(F)(F)F)ccc1C(=O)NCc1ccccn1 (stereo not drawn) [Ia-22] | HPLC-MS: logP = 2.65; mass | 100 | 100 | 90 | 100 | 100 |  |  |  | efficacy in % ([5]; application rate 500 g/ha): 100% |
| O=C(/C=C/c1ccc(C(=O)NC2CC2)c(C(F)(F)F)c1)NC(c1cc(Cl)cc(C(F)(F)F)c1)C(F)(F)F (stereo not drawn) [Ia-40, 4-[(1E,Z)-3-({1-[3-Chloro-5-(trifluoromethyl)phenyl]-2,2,2-trifluoroethyl}amino)-3-oxoprop-1-en-1-yl]-N-cyclopropyl-2-(trifluoromethyl)benzamide] |  | 100 |  | 90 | 100 |  | 3.68 |  |  | kill rate in % (efficacy) [8]: 85%; pest or weed control at 0.02 mg [7]: 100% |
| O=C(/C=C/c1ccc(C(=O)NC2CC2)c(Cl)c1)NC(c1cccc(C(F)(F)F)c1)C(F)(F)F (stereo not drawn) [Ia-43] | HPLC-MS: logP = 3.22; mass | 100 | 100 | 100 | 100 | 100 |  |  |  | efficacy in % ([5]; application rate 500 g/ha): 80% |
| O=C(/C=C/c1ccc(C(=O)NCC(F)(F)F)c(Br)c1)NC(c1cccc(C(F)(F)F)c1)C(F)(F)F (stereo not drawn) [Ia-45] | HPLC-MS: logP = 3.60; mass | 98 |  | 100 | 100 | 100 |  |  |  | kill rate in % (efficacy) [8]: 100% |
| CN(C(=O)c1ccc(/C=C/C(=O)NC(c2cccc(C(F)(F)F)c2)C(F)(F)F)cc1C(F)(F)F)C1CC1 (stereo not drawn) [Ia-60] | HPLC-MS: logP = 3.62; mass | 100 | 100 | 90 | 100 | 100 |  |  |  | kill rate in % (efficacy) [8]: 95%; efficacy in % [9]: 90% |
| O=C(/C=C/c1ccc(C(=O)NC2CSC2)c(C(F)(F)F)c1)NC(c1cccc(C(F)(F)F)c1)C(F)(F)F (stereo not drawn) [Ia-130, 4-[(1E)-3-oxo-3-({2,2,2-trifluoro-1-[3-(trifluoromethyl)phenyl]ethyl}-amino)prop-1-en-1-yl]-N-(thietan-3-yl)-2-(trifluoromethyl)benzamide] |  |  |  |  |  |  |  | 80 | 100 | chromatographic logP ([1]; HPLC-MS): 3.62; efficacy in % ([5]; application rate 100 g/ha): 100%; pest or weed control at 0.02 mg [7]: 100% |
| O=C(/C=C/c1ccc(C(=O)NC2CC2)c(C(F)(F)F)c1)NC(c1cc(F)cc(C(F)(F)F)c1)C(F)(F)F (stereo not drawn) [Ia-229, N-[α,3-Bis(trifluoromethyl)-5-fluorobenzenemethane]-3-trifluoromethyl-4-(N-cyclopropylcarbamoyl)cinnamide] |  |  |  |  |  |  | 3.59 |  |  | pest or weed control at 500 g/ha [10]: 100%; pest or weed control at 500 g/ha [12]: 100%; pest or weed control at 500 g/ha [11]: 100% |
| CC(C)C(=O)NCc1ccc(/C=C/C(=O)NC(c2cccc(C(F)(F)F)c2)C(F)(F)F)cc1C(F)(F)F (stereo not drawn) [Ia-266, (2E)-3-{4-[(Isobutyrylamino)methyl]-3-(trifluoromethyl)phenyl}-N-{2,2,2-trifluoro-1-[3-(trifluoromethyl)phenyl]ethyl}acrylamide] |  |  |  |  |  |  | 3.78 | 90 | 100 | pest or weed control at 100 g/ha [12]: 100% |
| O=C(NC(c1cccc(C(F)(F)F)c1)C(F)(F)F)c1cc2cc(C(=O)NC3CC3)c(Cl)cc2[nH]1 (stereo not drawn) [Ic-24, 6-Chloro-N^5-cyclopropyl-N^2-{2,2,2-trifluoro-1-[3-(trifluoromethyl)phenyl]ethyl}-1H-indole-2,5-dicarboxamide] |  |  | 100 |  |  |  | 3.08 |  |  | pest or weed control at 500 g/ha [10]: 100%; pest or weed control at 500 g/ha [12]: 100%; pest or weed control at 500 g/ha [11]: 100%; pest or weed control at 0.02 mg [7]: 100% |
| C=CCNC(=O)c1cc2cc(C(=O)NC(c3cccc(C(F)(F)F)c3)C(F)(F)F)n(C)c2cc1Cl (stereo not drawn) [Ic-32, N^5-Allyl-6-chloro-1-methyl-N^2-{2,2,2-trifluoro-1-[3-(trifluoromethyl)phenyl]ethyl}-1H-indole-2,5-dicarboxamide] |  |  |  |  |  |  | 3.68 |  |  | pest or weed control at 500 g/ha [10]: 100%; pest or weed control at 500 g/ha [12]: 100%; pest or weed control at 500 g/ha [11]: 100% |
| CC(=O)NC1CCc2cc(/C=C/C(=O)NC(c3cccc(C(F)(F)F)c3)C(F)(F)F)ccc21 (stereo not drawn) [Ie-1, (2E)-3-(1-Acetamido-2,3-dihydro-1H-inden-5-yl)-N-{2,2,2-trifluoro-1-[3-(trifluoromethyl)-phenyl]ethyl}acrylamide] |  |  |  |  |  |  | 3 | 90 | 100 | pest or weed control at 100 g/ha [12]: 100% |
| O=C(/C=C/c1cc(C(F)(F)F)c(C(=O)NC2CC2)cn1)NC(c1cccc(C(F)(F)F)c1)C(F)(F)F (stereo not drawn) [If-2, N-Cyclopropyl-6-[(1E)-3-oxo-3-({2,2,2-trifluoro-1-[3-(trifluoromethyl)phenyl]ethyl}amino)-prop-1-en-1-yl]-4-(trifluoromethyl)nicotinamide] |  |  |  |  |  |  | 3.27 | 100 | 100 | pest or weed control at 100 g/ha [12]: 83%; efficacy in % ([5]; application rate 100 g/ha): 100% |
| O=C(/C=C\c1ccc(C(=O)NC2CC2)c(Cl)c1)NC(c1cccc(C(F)(F)F)c1)C(F)(F)F (stereo not drawn) [Ig-1, 2-Chloro-N-cyclopropyl-4-[(1Z)-3-oxo-3-({2,2,2-trifluoro-1-[3-(trifluoromethyl)phenyl]ethyl}-amino)prop-1-en-1-yl]benzamide] |  |  |  |  |  |  | 3.06 | 80 | 100 |  |
